# How the values were obtained:
# [1] = system: Mus musculus; assay: Percent recovery of tyrosine hydroxylase immunostaining in mice following 10 mg/kg p.o. administration after lesioning with MPTP.; format: functional, organism-based; set-up: dose 10 mg/kg; conditions: at 10 mg/kg
# [2] = system: Mus musculus; assay: Percent recovery of tyrosine hydroxylase immunostaining after oral administration at dose 10 mg/kg concurrently with MPTP; format: functional, organism-based; set-up: dose 10 mg/kg
# [3] = organism: Gallus gallus; assay: In vitro promotion of fiber extension (neurite outgrowth) from cultured chick sensory neuron; format: functional; conditions: read-out: ED50 (the source's name)
# [4] = system: Mus musculus; assay: Percent recovery of tyrosine hydroxylase immunostaining after peroral administration at dose 10 mg/kg after lesioning with MPTP (post-MPTP); format: functional, organism-based; set-up: dose 10 mg/kg
# [5] = system: Mus musculus; assay: Percent recovery of tyrosine hydroxylase immunostaining after oral administration at dose 10 mg/kg after lesioning with MPTP (post-MPTP); format: functional, organism-based; set-up: dose 10 mg/kg
# [6] = system: Mus musculus; assay: Percent recovery of vtyrosine hydroxylase immunostaining after oral administration at dose 10 mg/kg after lesioning with MPTP (post-MPTP); format: functional, organism-based; set-up: dose 10 mg/kg
# [7] = molecular target: Peptidyl-prolyl cis-trans isomerase FKBP1A (Homo sapiens, UniProt P62942); assay: Inhibitory activity against FK506 binding protein 12
# Peptidyl-prolyl cis-trans isomerase FKBP1A, sequence (P62942 whole entry): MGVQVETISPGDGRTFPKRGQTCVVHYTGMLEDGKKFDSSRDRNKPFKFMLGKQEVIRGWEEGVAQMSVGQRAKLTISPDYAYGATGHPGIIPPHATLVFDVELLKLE
Structure (SMILES),Recovery [1] [%],Recovery [2] [%],further results
O=C(C(=O)N1CCCC[C@H]1C(=O)NCCCCc1ccccc1)c1ccccc1,18.7,,
O=C(C(=O)N1CCC[C@H]1C(=O)SCCCc1ccccc1)C1CCCCC1,,52,
CCC(C)(C)C(=O)C(=O)N1CCC[C@H]1C(=O)SCCc1ccccc1,31.4,66,EC50 [3]: 0.77 nM
CCC(C)(C)C(=O)C(=O)N1CCC[C@H]1C(=O)OCCCc1cccnc1 [GPI-1046],,43,Recovery [4]: 35%; EC50 [3]: 0.06 nM
CCC(C)(C)C(=O)C(=O)N1CCC[C@H]1C(=O)N(C)CCCc1ccccc1,20.5,,
CCC(C)(C)C(=O)C(=O)N1CCC[C@H]1C(=O)SCCC(c1ccccc1)c1ccccc1,,39,Recovery [5]: 37%
CC(C)(C)C(=O)C(=O)N1CCC[C@H]1C(=O)NCCCc1ccccc1,28.1,,
CCC(C)(C)C(=O)C(=O)N1CCC[C@H]1C(=O)SCCCc1ccccc1,,72,EC50 [3]: < 0.01 nM
CCC(C)(C)C(=O)C(=O)N1CCC[C@H]1C(=O)NC,16.1,,
CC(C)(C)C(=O)C(=O)N1CCCC[C@H]1C(=O)NCCCCc1ccccc1,44.9,,
CCC(C)(C)C(=O)C(=O)N1CCCC[C@H]1C(=O)SCCCc1ccccc1,,,Recovery [6]: 30%
CCC(C)(C)C(=O)C(=O)N1CCC[C@H]1C(=O)NCCc1ccccc1,44.1,,
CCC(C)(C)C(=O)C(=O)N1CCCC[C@H]1C(=O)SCCC(c1ccccc1)c1ccccc1,72,81,
CCC(C)(C)C(=O)C(=O)N1CCCC[C@H]1C(=O)NCCC(c1ccccc1)c1ccccc1,41.9,,Ki [7]: 420 nM
CCC(C)(C)C(=O)C(=O)N1CCC[C@H]1C(=O)NCCCc1ccccc1,,,Recovery [5]: 39%; Ki [7]: 1100 nM
CCC(C)(C)C(=O)C(=O)N1CCC[C@H]1C(=O)NC(CCc1ccccc1)CCc1ccccc1,6.9,,

Structure (SMILES),Recovery [1] [%],Recovery [2] [%],further results
CCC(C)(C)C(=O)C(=O)N1CCC[C@H]1C(=O)SCCCc1ccc(OC)cc1,,,EC50 [3]: 0.01 nM
CCC(C)(C)C(=O)C(=O)N1CCCC[C@H]1C(=O)NCCCCCc1ccccc1,37.4,,
CCC(C)(C)C(=O)C(=O)N1CCCC[C@H]1C(=O)NCCCc1ccccc1,65.3,,
O=C(C(=O)N1CCC[C@H]1C(=O)SCCc1ccccc1)C1CCCC1,,41,
CCC(C)(C)C(=O)C(=O)N1CCC[C@H]1C(=O)NCCCCc1ccccc1,50.1,,
CCC(C)(C)C(=O)C(=O)N1CCCC[C@H]1C(=O)NCCCCc1ccccc1,54.1,,
CCC(C)(C)C(=O)C(=O)N1CCCC[C@H]1C(=O)SCCc1ccccc1,,73,
CCC(C)(C)C(=O)C(=O)N1CCC[C@H]1C(=O)SCCCc1ccc(C(F)(F)F)cc1,,71,Recovery [5]: 34%
CCC(C)(C)C(=O)C(=O)N1CCCC[C@H]1C(=O)NC,31.6,,
CCC(C)(C)C(=O)C(=O)N1CCC[C@H]1C(=O)SCCCc1cccnc1,,31,
CCC(C)(C)C(=O)C(=O)N1CCC[C@H]1C(=O)SCCCCc1ccccc1,,48,
CCC(C)(C)C(=O)C(=O)N1CCC[C@H]1C(=O)NCCCc1cccnc1,4.7,,Ki [7]: 820 nM
CCC(C)(C)C(=O)C(=O)N1CCC[C@H]1C(=O)SCCCc1ccc2ccccc2c1,,36,Recovery [5]: 10%
CCC(C)(C)C(=O)C(=O)N1CCCC[C@H]1C(=O)NCCCCc1cccnc1,29.4,,
CCC(C)(C)C(=O)C(=O)N1CCC[C@H]1C(=O)NCCCc1ccc(O)cc1,1.8,,
CCC(C)(C)C(=O)C(=O)N1CCCC[C@H]1C(=O)NCCCCc1ccc(O)cc1,60.4,,

# From ChEMBL document CHEMBL1135538, “Synthesis of N-glyoxyl prolyl and pipecolyl amides and thioesters and evaluation of their in vitro and in vivo nerve regenerative effects” (J Med Chem, 2002)
